According to patent publication EP4722207A1, “OXOISOINDOLINYL-SUBSTITUTED TETRAHYDROPYRIMIDINEDIONE DERIVATIVE AND USE THEREOF” (Gluetacs Therapeutics (Shanghai) Co., Ltd., priority 2023, dated 2024):

What was measured:
WEE1 = target: T1, WEE1 (Homo sapiens, UniProt P30291+Q96SW2); assay: Western-blot assay, substrate protein degradation in hPBMCs: WEE1; format: cell-based; settings: 24 hours of compound treatment, 50 nM and 500 nM
T1 construct: effects of the compounds of the present disclosure on the expression of target proteins in cells; endogenous in cells; host or cells: human PBMCs (hPBMCs)

IKZF1 = target: T2, IKZF1 (Homo sapiens, UniProt Q13422+Q96SW2); assay: Western-blot assay, substrate protein degradation in hPBMCs: IKZF1; format: cell-based; settings: 24 hours of compound treatment, 50 nM and 500 nM
T2 construct: effects of the compounds of the present disclosure on the expression of target proteins in cells; endogenous in cells; host or cells: human PBMCs (hPBMCs)

IKZF2 = target: T3, IKZF2 (Homo sapiens, UniProt Q96SW2+Q9UKS7); assay: Western-blot assay, substrate protein degradation in hPBMCs: IKZF2; format: cell-based; settings: 24 hours of compound treatment, 50 nM and 500 nM
T3 construct: effects of the compounds of the present disclosure on the expression of target proteins in cells; endogenous in cells; host or cells: human PBMCs (hPBMCs)

IKZF3 = target: T4, IKZF3 (Homo sapiens, UniProt Q96SW2+Q9UKT9); assay: Western-blot assay, substrate protein degradation in hPBMCs: IKZF3; format: cell-based; settings: 24 hours of compound treatment, 50 nM and 500 nM
T4 construct: effects of the compounds of the present disclosure on the expression of target proteins in cells; endogenous in cells; host or cells: human PBMCs (hPBMCs)

CK1α = target: T5, CK1α (Homo sapiens, UniProt P48729+Q96SW2); assay: Western-blot assay, substrate protein degradation in hPBMCs: CK1α; format: cell-based; settings: 24 hours of compound treatment, 50 nM and 500 nM
T5 construct: effects of the compounds of the present disclosure on the expression of target proteins in cells; endogenous in cells; host or cells: human PBMCs (hPBMCs)

GSPT1 = target: T6, GSPT1 (Homo sapiens, UniProt P15170+Q96SW2); assay: Western-blot assay, substrate protein degradation in hPBMCs: GSPT1; format: cell-based; settings: 24 hours of compound treatment, 50 nM and 500 nM
T6 construct: effects of the compounds of the present disclosure on the expression of target proteins in cells; endogenous in cells; host or cells: human PBMCs (hPBMCs)

H292 = assay: Cell viability assay (CellTiter-Meiluncell Luminescent), tumor cell proliferation, H292; settings: Homo sapiens, NCI-H292, 96 h; for inhibition at 0.01 µM: read-out: Inhibition Rate at 10 nM (%); for inhibition at 0.5 µM: read-out: Inhibition Rate at 500 nM (%)

T1 sequence (P30291 whole entry): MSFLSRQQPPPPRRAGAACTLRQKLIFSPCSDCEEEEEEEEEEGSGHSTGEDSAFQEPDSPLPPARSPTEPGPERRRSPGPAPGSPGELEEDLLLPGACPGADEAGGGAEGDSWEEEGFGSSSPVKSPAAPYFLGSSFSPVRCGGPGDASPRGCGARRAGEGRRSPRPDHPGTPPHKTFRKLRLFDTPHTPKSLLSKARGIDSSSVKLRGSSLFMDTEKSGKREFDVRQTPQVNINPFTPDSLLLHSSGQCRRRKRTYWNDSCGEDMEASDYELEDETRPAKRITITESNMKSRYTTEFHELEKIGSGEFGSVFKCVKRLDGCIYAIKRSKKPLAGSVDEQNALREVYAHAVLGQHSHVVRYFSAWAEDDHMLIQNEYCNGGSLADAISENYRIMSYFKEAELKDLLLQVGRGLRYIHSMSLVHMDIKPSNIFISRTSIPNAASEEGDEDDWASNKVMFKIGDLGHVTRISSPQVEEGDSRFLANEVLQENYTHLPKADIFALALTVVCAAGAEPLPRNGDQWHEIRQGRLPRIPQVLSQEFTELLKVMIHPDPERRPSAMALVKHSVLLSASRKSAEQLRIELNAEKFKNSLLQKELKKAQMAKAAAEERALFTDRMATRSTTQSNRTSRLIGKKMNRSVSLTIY
T1 sequence (Q96SW2 whole entry): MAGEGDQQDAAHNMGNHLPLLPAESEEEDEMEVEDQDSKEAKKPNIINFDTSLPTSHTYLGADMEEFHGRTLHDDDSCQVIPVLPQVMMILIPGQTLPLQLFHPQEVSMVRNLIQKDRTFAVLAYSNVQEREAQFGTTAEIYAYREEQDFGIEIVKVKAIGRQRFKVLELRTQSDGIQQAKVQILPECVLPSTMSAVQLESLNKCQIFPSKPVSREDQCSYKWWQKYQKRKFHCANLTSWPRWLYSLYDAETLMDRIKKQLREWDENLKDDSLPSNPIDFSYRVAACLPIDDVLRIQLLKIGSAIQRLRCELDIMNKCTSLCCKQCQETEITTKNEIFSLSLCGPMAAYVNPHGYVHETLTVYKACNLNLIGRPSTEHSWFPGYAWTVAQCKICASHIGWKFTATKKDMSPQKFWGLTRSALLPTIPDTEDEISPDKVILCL
T1 sequence (Q16531 whole entry partner): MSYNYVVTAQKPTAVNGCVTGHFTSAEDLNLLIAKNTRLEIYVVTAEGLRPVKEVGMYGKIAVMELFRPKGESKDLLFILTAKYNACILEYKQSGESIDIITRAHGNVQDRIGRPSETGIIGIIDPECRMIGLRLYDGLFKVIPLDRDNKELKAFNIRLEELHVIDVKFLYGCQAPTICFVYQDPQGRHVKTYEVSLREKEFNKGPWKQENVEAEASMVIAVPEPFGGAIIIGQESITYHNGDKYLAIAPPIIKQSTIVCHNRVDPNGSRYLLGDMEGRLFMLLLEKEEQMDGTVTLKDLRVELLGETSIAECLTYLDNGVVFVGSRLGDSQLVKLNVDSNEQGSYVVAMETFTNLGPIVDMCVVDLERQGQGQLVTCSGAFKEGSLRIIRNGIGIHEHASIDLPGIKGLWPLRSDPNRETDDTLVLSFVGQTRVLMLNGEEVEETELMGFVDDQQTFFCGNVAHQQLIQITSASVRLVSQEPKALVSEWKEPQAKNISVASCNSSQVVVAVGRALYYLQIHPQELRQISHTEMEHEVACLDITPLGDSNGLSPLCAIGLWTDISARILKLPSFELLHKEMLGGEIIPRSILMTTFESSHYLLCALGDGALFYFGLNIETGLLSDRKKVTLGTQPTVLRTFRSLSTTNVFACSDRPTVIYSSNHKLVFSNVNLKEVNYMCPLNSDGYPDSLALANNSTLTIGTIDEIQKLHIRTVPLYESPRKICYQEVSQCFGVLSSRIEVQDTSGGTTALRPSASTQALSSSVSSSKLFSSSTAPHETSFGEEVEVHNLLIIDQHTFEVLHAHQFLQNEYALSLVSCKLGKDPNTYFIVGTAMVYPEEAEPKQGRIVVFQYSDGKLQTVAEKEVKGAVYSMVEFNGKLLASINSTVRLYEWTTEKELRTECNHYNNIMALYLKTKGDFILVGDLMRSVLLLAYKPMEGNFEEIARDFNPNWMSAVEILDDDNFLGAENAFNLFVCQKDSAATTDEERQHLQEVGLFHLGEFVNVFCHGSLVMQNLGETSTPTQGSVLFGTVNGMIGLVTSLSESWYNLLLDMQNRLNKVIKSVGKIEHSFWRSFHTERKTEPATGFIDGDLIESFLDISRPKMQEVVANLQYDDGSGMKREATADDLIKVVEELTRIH
T5 sequence (P48729 whole entry): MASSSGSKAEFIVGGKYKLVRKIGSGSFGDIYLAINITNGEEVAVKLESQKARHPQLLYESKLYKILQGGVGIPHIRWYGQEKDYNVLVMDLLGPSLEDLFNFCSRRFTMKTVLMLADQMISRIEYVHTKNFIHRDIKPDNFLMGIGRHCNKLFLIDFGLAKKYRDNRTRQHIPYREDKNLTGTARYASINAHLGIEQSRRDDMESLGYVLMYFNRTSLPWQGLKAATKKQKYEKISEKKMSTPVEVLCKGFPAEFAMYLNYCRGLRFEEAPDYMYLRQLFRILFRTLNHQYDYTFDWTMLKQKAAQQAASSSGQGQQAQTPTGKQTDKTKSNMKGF
T5 sequence (Q96SW2 whole entry): as the sequence (Q96SW2 whole entry) above
T5 sequence (Q16531 whole entry partner): as the sequence (Q16531 whole entry partner) above
T2 sequence (Q13422 whole entry): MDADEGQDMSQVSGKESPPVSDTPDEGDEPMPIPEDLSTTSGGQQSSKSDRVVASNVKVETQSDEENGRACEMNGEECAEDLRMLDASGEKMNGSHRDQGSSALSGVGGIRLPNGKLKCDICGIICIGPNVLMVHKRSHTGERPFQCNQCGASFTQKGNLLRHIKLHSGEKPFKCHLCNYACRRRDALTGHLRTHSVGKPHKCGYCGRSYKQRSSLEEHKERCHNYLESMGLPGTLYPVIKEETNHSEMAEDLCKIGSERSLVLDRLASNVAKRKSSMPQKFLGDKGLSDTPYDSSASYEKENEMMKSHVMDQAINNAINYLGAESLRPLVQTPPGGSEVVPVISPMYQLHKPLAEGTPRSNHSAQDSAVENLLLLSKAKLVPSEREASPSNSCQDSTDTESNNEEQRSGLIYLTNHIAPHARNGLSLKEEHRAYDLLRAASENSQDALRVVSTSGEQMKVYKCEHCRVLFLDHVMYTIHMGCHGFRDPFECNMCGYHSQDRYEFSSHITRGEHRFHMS
T2 sequence (Q96SW2 whole entry): as the sequence (Q96SW2 whole entry) above
T2 sequence (Q16531 whole entry partner): as the sequence (Q16531 whole entry partner) above
T6 sequence (P15170 whole entry): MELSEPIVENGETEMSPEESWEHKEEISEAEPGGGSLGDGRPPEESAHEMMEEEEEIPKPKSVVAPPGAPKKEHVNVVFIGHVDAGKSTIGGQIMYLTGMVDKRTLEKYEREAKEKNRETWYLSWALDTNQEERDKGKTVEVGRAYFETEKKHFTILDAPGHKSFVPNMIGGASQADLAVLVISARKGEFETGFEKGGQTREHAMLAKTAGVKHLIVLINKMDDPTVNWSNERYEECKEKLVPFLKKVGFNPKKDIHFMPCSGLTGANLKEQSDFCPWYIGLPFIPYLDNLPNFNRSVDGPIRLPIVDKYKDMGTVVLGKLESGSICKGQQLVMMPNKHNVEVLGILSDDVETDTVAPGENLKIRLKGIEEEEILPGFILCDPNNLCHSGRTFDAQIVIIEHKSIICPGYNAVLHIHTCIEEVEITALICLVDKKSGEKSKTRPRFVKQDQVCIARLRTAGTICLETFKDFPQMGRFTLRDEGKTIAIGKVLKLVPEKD
T6 sequence (Q96SW2 whole entry): as the sequence (Q96SW2 whole entry) above
T6 sequence (Q16531 whole entry partner): as the sequence (Q16531 whole entry partner) above
T3 sequence (Q9UKS7 whole entry): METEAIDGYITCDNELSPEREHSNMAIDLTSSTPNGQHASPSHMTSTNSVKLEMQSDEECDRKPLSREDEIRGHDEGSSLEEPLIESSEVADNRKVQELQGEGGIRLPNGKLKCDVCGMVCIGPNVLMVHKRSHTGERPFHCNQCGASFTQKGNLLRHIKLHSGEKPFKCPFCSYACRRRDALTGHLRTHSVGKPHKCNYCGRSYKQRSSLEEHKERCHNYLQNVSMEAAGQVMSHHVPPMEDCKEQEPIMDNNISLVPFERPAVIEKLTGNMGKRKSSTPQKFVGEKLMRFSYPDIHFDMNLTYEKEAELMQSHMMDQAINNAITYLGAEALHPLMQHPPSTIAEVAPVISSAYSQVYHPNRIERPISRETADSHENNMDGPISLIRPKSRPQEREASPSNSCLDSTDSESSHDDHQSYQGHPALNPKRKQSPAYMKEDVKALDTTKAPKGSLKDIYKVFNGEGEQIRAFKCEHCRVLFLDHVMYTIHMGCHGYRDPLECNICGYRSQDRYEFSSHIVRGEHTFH
T3 sequence (Q96SW2 whole entry): as the sequence (Q96SW2 whole entry) above
T3 sequence (Q16531 whole entry partner): as the sequence (Q16531 whole entry partner) above

SMILES: Cc1nc(C2=CCN(Cc3ccc4c(c3)C(=O)N(N3CCC(=O)NC3=O)C4=O)CC2)c2c3c(sc2n1)CCCC3 [GT-08432, 2-(2,4-dioxotetrahydropyrimidin-1(2H)-yl)-5-((4-(2-methyl-5,6,7,8-tetrahydrobenzo[4,5]thieno[2,3-d]pyrimidin-4-yl)-3,6-dihydropyridin-1(2H)-yl)methyl)isoindoline-1,3-dione]
- substrate protein remaining % WEE1 (WEE1): B (80%< substrate protein remaining %≤ 100%)
- substrate protein remaining % IKZF1 (IKZF1): B (80%< substrate protein remaining %≤ 100%)
- substrate protein remaining % IKZF2 (IKZF2): B (80%< substrate protein remaining %≤ 100%)
- substrate protein remaining % IKZF3 (IKZF3): A (0% ≤ substrate protein remaining % ≤ 80%)
- substrate protein remaining % CK1α (CK1α): A (0% ≤ substrate protein remaining % ≤ 80%)
- substrate protein remaining % GSPT1 (GSPT1): A (0% ≤ substrate protein remaining % ≤ 80%)
- inhibition at 0.01 µM (H292): 20 to 40%
- inhibition at 0.5 µM (H292): 20 to 40%

SMILES: O=C1CCN(N2C(=O)c3ccc(CN4CC=C(c5ncnc6sc7c(c56)CCC7)CC4)cc3C2=O)C(=O)N1 [GT-08434, 5-((4-(6,7-dihydro-5H-cyclopenta[4,5]thieno[2,3-d]pyrimidin-4-yl)-3,6-dihydropyridin-1(2H)-yl)methyl)-2-(2,4-dioxotetrahydropyrimidin-1(2H)-yl)isoindoline-1,3-dione]
- substrate protein remaining % WEE1 (WEE1): B (80%< substrate protein remaining %≤ 100%)
- substrate protein remaining % IKZF1 (IKZF1): A (0% ≤ substrate protein remaining % ≤ 80%)
- substrate protein remaining % IKZF2 (IKZF2): A (0% ≤ substrate protein remaining % ≤ 80%)
- substrate protein remaining % IKZF3 (IKZF3): A (0% ≤ substrate protein remaining % ≤ 80%)
- substrate protein remaining % CK1α (CK1α): A (0% ≤ substrate protein remaining % ≤ 80%)
- substrate protein remaining % GSPT1 (GSPT1): A (0% ≤ substrate protein remaining % ≤ 80%)
- inhibition at 0.01 µM (H292): 20 to 40%
- inhibition at 0.5 µM (H292): 15 to 20%

SMILES: Cc1nc(C2=CCN(Cc3ccc4c(c3)CN(N3CCC(=O)NC3=O)C4=O)CC2)c2c3c(sc2n1)CCC3 [GT-08437, 1-(5-((4-(2-methyl-6,7-dihydro-5H-cyclopenta[4,5]thieno[2,3-d]pyrimidin-4-yl)-3,6-dihydropyridin-1(2H)-yl)methyl)-1-oxoisoindolin-2-yl)dihydropyrimidine-2,4(1H,3H)-dione]
- substrate protein remaining % WEE1 (WEE1): A (0% ≤ substrate protein remaining % ≤ 80%)
- substrate protein remaining % IKZF1 (IKZF1): A (0% ≤ substrate protein remaining % ≤ 80%)
- substrate protein remaining % IKZF2 (IKZF2): B (80%< substrate protein remaining %≤ 100%)
- substrate protein remaining % IKZF3 (IKZF3): A (0% ≤ substrate protein remaining % ≤ 80%)
- substrate protein remaining % CK1α (CK1α): B (80%< substrate protein remaining %≤ 100%)
- substrate protein remaining % GSPT1 (GSPT1): A (0% ≤ substrate protein remaining % ≤ 80%)
- inhibition at 0.01 µM (H292): 20 to 40%
- inhibition at 0.5 µM (H292): 15 to 20%

SMILES: O=C1CCN(N2Cc3cc(CN4CCN(c5nc(Cl)nc6c5SCC6)CC4)ccc3C2=O)C(=O)N1 [GT-08439, 1-(5-((4-(2-chloro-6,7-dihydrothieno[3,2-d]pyrimidin-4-yl)piperazin-1-yl)methyl)-1-oxoisoindolin-2-yl)dihydropyrimidine-2,4(1H,3H)-dione]
- substrate protein remaining % WEE1 (WEE1): A (0% ≤ substrate protein remaining % ≤ 80%)
- substrate protein remaining % IKZF1 (IKZF1): A (0% ≤ substrate protein remaining % ≤ 80%)
- substrate protein remaining % IKZF2 (IKZF2): B (80%< substrate protein remaining %≤ 100%)
- substrate protein remaining % IKZF3 (IKZF3): A (0% ≤ substrate protein remaining % ≤ 80%)
- substrate protein remaining % CK1α (CK1α): B (80%< substrate protein remaining %≤ 100%)
- substrate protein remaining % GSPT1 (GSPT1): A (0% ≤ substrate protein remaining % ≤ 80%)
- inhibition at 0.01 µM (H292): 20 to 40%
- inhibition at 0.5 µM (H292): 20 to 40%
